{"source": "patent US20060194883A1", "about": "“Mmp expression inhibitor” (EISAI CO., LTD, priority 2003, published 2006)", "assay_in_all_cases": "gene expression with TPA induction, RT-PCR", "assay_type_in_all_cases": "cell-based", "details_in_all_cases": "HepG2; 20 nM of TPA alone", "key": {"[1]": {"test_system": "MMP-1", "protocol": "(§1) MMP and Ets-1, the expression of which is inhibited by menatetrenone, are known to be genes that are induced by 12-O-tetradecanoylphorbol-13-acetate (TPA) as well as uPA (urokinase plasminogen activator) and the like. In order to discover whether menatetrenone controls expression of genes activated by TPA, TPA was added to HepG2 cultured hepatic cancer cells at a concentration of 20 nM, menatetrenone was then added thereto, and RT-PCR and Western blot were performed to investigate whether expression of the aforementioned gene expression of which was induced by TPA was affected. […] On the other hand, the uPA receptor uPAR and the uPA inhibitor PAI were not affected."}, "[2]": {"test_system": "uPA (urokinase plasminogen activator)", "protocol": "as §1"}, "[3]": {"test_system": "uPA inhibitor PAI", "protocol": "as §1"}, "[4]": {"test_system": "Ets-1", "protocol": "as §1"}, "[5]": {"test_system": "uPA receptor uPAR", "protocol": "as §1"}, "[6]": {"test_system": "MMP-7", "protocol": "as §1"}, "[7]": {"test_system": "MMP-3", "protocol": "as §1"}}}
{"molecule": "CCCCCCCCCCCCCC(=O)O[C@@H]1[C@@H](C)[C@@]2(O)[C@@H](C=C(CO)C[C@]3(O)C(=O)C(C)=C[C@@H]23)[C@@H]2C(C)(C)[C@]12OC(C)=O", "note": "[TPA, 12-O-tetradecanoylphorbol-13-acetate]", "values": [{"measurement": "mRNA expression of MMP-1", "setting": "[1]", "result": "increased"}, {"measurement": "mRNA expression of uPA", "setting": "[2]", "result": "increased"}, {"measurement": "mRNA expression of PAI", "setting": "[3]", "result": "not affected"}, {"measurement": "mRNA expression of Ets-1", "setting": "[4]", "result": "increased"}, {"measurement": "mRNA expression of uPAR", "setting": "[5]", "result": "not affected"}, {"measurement": "mRNA expression of MMP-7", "setting": "[6]", "result": "increased"}, {"measurement": "mRNA expression of MMP-3", "setting": "[7]", "result": "increased"}]}
